Measurements reported in ChEMBL document CHEMBL1201862, “PubChem BioAssay data set” (2004).
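Values below derive from 48-hour exposures of cells grown in 96-well plates, with endpoints linearly interpolated between the two concentrations bracketing the appropriate inhibition level. GI50: concentration for 50% inhibition of growth.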 The source made the active and inactive calls. Rule as the data show it: active = GI50 up to about 1.1 µM and inactive = higher.

Tests used:
Assay in all cases: NCI-60 cell line screen, 48 h
[1] = system: UACC-62
[2] = system: UACC-257
[3] = system: MOLT-4
[4] = system: OVCAR-3
[5] = system: HCC 2998
[6] = system: ACHN
[7] = system: M14
[8] = system: HOP-62
[9] = system: K562
[10] = system: DMS-273
[11] = system: DU-145
[12] = system: SK-MEL-2
[13] = system: OVCAR-5
[14] = system: MDA-N
[15] = system: SF-295
[16] = system: NCI-H23
[17] = system: UO-31
[18] = system: MDA-MB-435
[19] = system: HOP-92
[20] = system: HCT-116

Measured: GI50

COCC(=O)OC1CCn2c1nc1c2C(=O)C(C)=C(NC(C)=O)C1=O (stereo not drawn)
inactive: [1] 3.27 µM | [2] 3.97 µM | [3] 1.14 µM | [4] 1.66 µM | [5] 13 µM | [6] 8.91 µM | [7] 11.1 µM | [8] 21.5 µM | [9] 2.79 µM | [10] 17.5 µM | [11] 15.3 µM | [12] 4.04 µM | [13] 8.57 µM | [14] 1.85 µM | [15] 16.3 µM | [16] 7.85 µM | [17] 12.6 µM | [18] 1.89 µM | [19] 1.98 µM | [20] 3.05 µM

COc1cc2c(cc1OC)CC(=O)Nc1cc(OC)c(OC)cc1CC2
inactive: [1] 36.1 µM | [2] > 53.7 µM | [3] 52.5 µM | [4] 43.9 µM | [5] 97.1 µM | [6] > 100 µM | [7] 36.1 µM | [8] 55.2 µM | [9] 24 µM | [10] 24.8 µM | [12] 79.8 µM | [13] > 83.8 µM | [15] 30.3 µM | [16] > 82.6 µM | [17] 61.9 µM | [19] > 80.9 µM | [20] 49 µM

O=C1Nc2ccccc2N/C1=C\C(=O)c1ccccc1O
inactive: [1] > 100 µM | [2] > 100 µM | [3] > 100 µM | [4] > 100 µM | [5] > 100 µM | [6] > 100 µM | [7] > 100 µM | [8] > 100 µM | [9] > 100 µM | [10] > 100 µM | [12] > 100 µM | [13] > 100 µM | [15] > 100 µM | [16] > 100 µM | [17] > 100 µM | [19] > 100 µM | [20] > 100 µM

O=c1[nH]c(=O)n(C2OC(CO)C(O)C2O)cc1OCc1ccccc1 (stereo not drawn)
inactive: [1] > 100 µM | [2] > 100 µM | [3] > 100 µM | [4] > 100 µM | [5] > 100 µM | [6] > 100 µM | [7] > 100 µM | [8] > 100 µM | [9] > 73.3 µM | [10] > 75.9 µM | [12] > 100 µM | [13] > 100 µM | [15] > 100 µM | [16] > 100 µM | [17] > 100 µM | [19] > 100 µM | [20] > 63.4 µM

C/C(CC(=O)Nc1ccc([N+](=O)[O-])cc1)=N\Nc1ccc([N+](=O)[O-])cc1[N+](=O)[O-]
inactive: [1] 49 µM | [2] 47.1 µM | [3] 13.1 µM | [4] 98.2 µM | [5] 13.9 µM | [6] 10.8 µM | [7] > 100 µM | [8] 50.1 µM | [9] 20.2 µM | [10] 18.5 µM | [12] > 100 µM | [13] > 100 µM | [15] 47.5 µM | [16] > 100 µM | [17] 20.6 µM | [19] 73.6 µM | [20] 59.7 µM

COc1ccc(O)cc1C(O)c1ccccc1 (stereo not drawn)
inactive: [1] > 100 µM | [2] > 100 µM | [3] > 100 µM | [4] > 100 µM | [5] > 100 µM | [6] > 100 µM | [7] > 100 µM | [8] > 100 µM | [9] > 100 µM | [10] > 100 µM | [12] > 100 µM | [13] > 100 µM | [15] > 100 µM | [16] > 100 µM | [17] > 100 µM | [19] > 100 µM | [20] > 100 µM

Brc1cccc(/C=N/C23CC4CC(CC(C4)C2)C3)c1
inactive: [1] > 100 µM | [2] > 100 µM | [3] > 100 µM | [4] > 100 µM | [5] > 100 µM | [6] > 100 µM | [7] > 100 µM | [8] > 100 µM | [9] > 100 µM | [10] > 100 µM | [12] > 100 µM | [13] > 100 µM | [15] > 100 µM | [16] > 100 µM | [17] > 100 µM | [19] > 100 µM | [20] > 100 µM

O=C(C(=O)c1cc2ccccc2[nH]1)c1cc2ccccc2[nH]1
inactive: [1] > 347 µM | [2] > 204 µM | [3] 24 µM | [4] 12.8 µM | [5] > 347 µM | [6] > 347 µM | [7] 213 µM | [8] > 183 µM | [9] > 332 µM | [10] > 318 µM | [12] > 347 µM | [13] > 347 µM | [15] > 347 µM | [16] > 255 µM | [17] > 347 µM | [19] > 127 µM | [20] 98.6 µM

Cc1c(Cl)cccc1NC(=O)C(=O)C1C(=O)CC(C)(C)CC1=O
inactive: [1] > 100 µM | [2] > 100 µM | [3] > 100 µM | [4] > 100 µM | [5] > 100 µM | [6] > 100 µM | [7] > 100 µM | [8] > 100 µM | [9] > 100 µM | [10] > 100 µM | [12] > 100 µM | [13] > 100 µM | [15] > 100 µM | [16] > 100 µM | [17] > 100 µM | [19] > 100 µM | [20] > 100 µM

COc1ccc(C2=Nc3ccccc3N=C(SC)C2)cc1
inactive: [1] > 100 µM | [2] 22.1 µM | [3] 25.5 µM | [4] 54.1 µM | [5] 28.7 µM | [6] 69.8 µM | [7] 59.7 µM | [8] > 100 µM | [9] 20.8 µM | [10] 73.6 µM | [12] 21.8 µM | [13] 44 µM | [15] 77.3 µM | [16] 32.8 µM | [17] 47.3 µM | [19] 15.6 µM | [20] 50.4 µM
